{"source": "patent EP3753560A1", "about": "“COMPOUNDS FOR THE TREATMENT OF NEUROMUSCULAR DISORDERS” (NMD Pharma A/S, priority 2019, dated 2020)", "key": {"[1]": {"test_system": "isolated rat soleus muscles", "test": "Measurement of force in an in vitro model: recovery of nerve-stimulated contractile force of isolated soleus nerve-muscle preparations after tubocurarine", "conditions": "for Point increase (%): percentage of the initial force restored, 50 µM test compound, after 40 mins of compound exposure, in continued presence of 115 nM tubocurarine (90 mins pre-incubation), 30°C", "text": "• The terms \"C1-3 alkyl\" and \"C1-5 alkyl\" refers to a branched or unbranched alkyl group having from […] carbon atoms respectively, including but not limited to methyl, ethyl, prop-1-yl, prop-2-yl, 2-methyl-prop-1-yl, 2-methyl-prop-2-yl, 2,2-dimethyl-prop-1-yl, but-1-yl, but-2-yl, 3-methyl-but-1-yl, 3-methyl-but-2-yl, pent-1-yl, pent-2-yl and pent-3-yl. • The term \"C3-5 cycloalkyl\" and \"C3-6 cycloalkyl\" refers to a group having three to five or three to six carbon atoms respectively including a monocyclic or bicyclic carbocycle, including but not limited to cyclopropyl, cyclobutyl, cyclopentyl and cyclohexyl. • The term \"C2-5 alkenyl\" refers to a branched or unbranched alkenyl group having from two to five carbon atoms, two of which are connected by a double bond, including but not limited to ethenyl, propenyl, isopropenyl, butenyl, isobutenyl, pentenyl and isopentenyl. • The term \"C2-5 alkynyl\" refers to a branched or unbranched alkynyl group having from […] carbon atoms, two of which are connected by a triple bond, including but not limited to ethynyl, prop-1-ynyl, prop-2-ynyl, but-1-ynyl, but-2-ynyl, but-3-ynyl, buta-1,3-diynyl, pent-1-ynyl, pent-2-ynyl, pent-3-ynyl, pent-4-ynyl, penta-2,4-diynyl and penta-1,3-diynyl. • The term \"5 membered aromatic heterocycle\" refers to an aromatic group having five carbon atoms wherein between 1 and 3 carbon atoms in the ring have been replaced with a heteroatom selected from the group comprising nitrogen, sulphur and oxygen. Binding to the heterocycle may be at the position of the heteroatom or via a carbon atom of the heterocycle. […] The term \"plasma half-life\" is the time that it takes the compound to lose one-half of its pharmacologic activity in the blood plasma. • The term \"treatment\" refers to the combating of a disease or disorder. \"Treatment\" or \"treating,\" as used herein, includes any desirable effect on the symptoms or pathology of a disease or condition as described herein, and may include even minimal changes or improvements in one or more measurable markers of the disease or condition being treated. […] In some embodiments, the term \"treatment\" encompasses amelioration and prevention. • The term \"amelioration\" refers to moderation in the severity of the symptoms of a disease or condition. Improvement in a patient's condition, or the activity of making an effort to correct, or at least make more acceptable, conditions that are difficult to endure related to patient's conditions is considered \"ameliorative\" treatment. • The term \"prevent\" or \"preventing\" refers to precluding, averting, obviating, forestalling, stopping, or hindering something from happening, especially by advance action. • The term \"reversal\" or \"reversing\" refers to the ability of a compound to restore nerve-stimulated force in skeletal muscle exposed either ex vivo or in vivo to a non-depolarizing neuromuscular blocking agent or another pharmaceutical that is able to depress neuromuscular transmission • The term \"non-depolarizing blockers\" refers to pharmaceutical agents that antagonize the activation of acetylcholine receptors at the post-synaptic muscle fibre membrane by blocking the acetylcholine binding site on the receptor.\nThe current disclosure relates to compounds that inhibit CIC-1 ion channels and increase muscle excitability and thereby improve muscle function in clinical conditions where muscle activation is failing. Such conditions result in loss of contractile function of skeletal muscle, weakness and excessive fatigue. In this series of experiments the compounds were tested for their ability to restore contractile function of isolated rat muscle when the neuromuscular transmission had been compromised akin to neuromuscular disorders.\nExperimentally, soleus muscles from 4-5 wk old rats were isolated with the motor nerve remaining attached. […]"}, "[2]": {"molecular_target": "T1, human CIC-1 channels (Homo sapiens, UniProt P35523)", "T1 construct": "host or cells: CHO (Chinese hamster ovary) cells, constitutive expression", "T1 sequence (P35523 whole entry)": "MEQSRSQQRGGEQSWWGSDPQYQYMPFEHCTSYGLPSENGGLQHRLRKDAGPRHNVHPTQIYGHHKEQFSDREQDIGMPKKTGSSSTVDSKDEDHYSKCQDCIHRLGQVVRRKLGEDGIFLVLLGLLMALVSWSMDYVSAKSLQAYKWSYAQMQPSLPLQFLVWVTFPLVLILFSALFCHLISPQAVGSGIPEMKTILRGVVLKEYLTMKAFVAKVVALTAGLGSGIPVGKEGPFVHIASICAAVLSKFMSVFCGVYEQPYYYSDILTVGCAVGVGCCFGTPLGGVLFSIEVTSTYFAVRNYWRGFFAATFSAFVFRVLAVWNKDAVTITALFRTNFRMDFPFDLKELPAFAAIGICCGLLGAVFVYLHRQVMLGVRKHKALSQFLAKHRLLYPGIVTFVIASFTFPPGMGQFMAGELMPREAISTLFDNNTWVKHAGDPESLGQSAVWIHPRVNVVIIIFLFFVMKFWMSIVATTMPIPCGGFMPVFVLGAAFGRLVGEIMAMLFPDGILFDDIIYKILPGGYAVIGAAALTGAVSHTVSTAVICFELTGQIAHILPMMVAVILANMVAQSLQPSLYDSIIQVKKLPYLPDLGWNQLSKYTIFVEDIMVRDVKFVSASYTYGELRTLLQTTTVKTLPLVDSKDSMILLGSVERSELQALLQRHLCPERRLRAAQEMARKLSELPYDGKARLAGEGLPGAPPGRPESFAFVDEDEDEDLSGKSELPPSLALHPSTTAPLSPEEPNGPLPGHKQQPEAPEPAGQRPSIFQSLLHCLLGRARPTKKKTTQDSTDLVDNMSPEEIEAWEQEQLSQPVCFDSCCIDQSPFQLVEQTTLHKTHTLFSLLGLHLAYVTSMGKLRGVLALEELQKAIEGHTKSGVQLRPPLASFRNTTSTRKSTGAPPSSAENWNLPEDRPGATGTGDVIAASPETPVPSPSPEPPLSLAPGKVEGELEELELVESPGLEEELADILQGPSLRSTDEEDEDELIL", "test": "Automated whole cell patch-clamp (Qpatch 16) on CHO cells expressing human CIC-1", "format": "cell-based", "conditions": "difference in half activation voltage between cell patches treated intracellularly with compound and control (vehicle) patches; positive shift reflects CIC-1 inhibition", "experimental": "Experiments were performed using an automated patch clamp system that allowed high throughput testing of whole cell patches together with both intracellular and extracellular addition of compound.\nAutomated whole cell patch clamp experiments were performed with the Qpatch 16 system (Sophion Bioscience, Ballerup, Denmark) at room temperature. Data acquisition and analysis were performed in the Qassay software (ver. 5.6, Odense).\nTo evoke CIC-1 currents in whole cell patches, the membrane potential was initially stepped from a holding potential of -30 mV to +60 mV for 100 ms and then to various test voltages (sweeps) ranging from +120 mV to -140 mV in steps of 20 mV for 300 ms. To obtain tail currents, the membrane potential was stepped to -100 mV after each test voltage for 300 ms and then relaxed to -30 mV for 2 sec between sweeps (Figure 2). I/V relationships for whole cell instant and steady state current amplitudes were obtained by plotting average current densities at the beginning and at the end of the 300 ms step against the membrane potential (Figure 3).\nIn order to determine the relative overall open probability (P0), the instantaneous tail currents were normalized to the maximal tail current obtained following the most positive voltage step and plotted against the test voltage. […]\nTo evaluate the compound effect on CIC-1, when applied directly to the intracellular side of the cell membrane, the half activation voltage, V1/2, was determined from whole cell patches with compound added to the intracellular solution and then compared to V1/2 determined from control cell patches with only vehicle added to the intracellular solution. Additionally, the effect of extracellular added compound was evaluated by determine V1/2 and steady state current amplitudes before and after exchanging the extracellular solution to contain compound.\nThe difference in half activation voltage of CIC-1 channels, ΔV1/2, was determined as the difference between the cell patches treated intracellularly with compound and control cells patches and is reported in Table 4 below. […]"}}}
{"smiles": "O=C(O)[C@@H]1CCc2cc(Br)cc(-c3ccon3)c2O1", "note": "(single isomer, unassigned) [Compound A-13]", "values": [{"measurement": "Point increase (%)", "setting": "[1]", "result": 24, "unit": "%"}]}
{"smiles": "O=C(O)Cn1cc(-c2ccon2)c2cc(Cl)ccc21", "note": "[Compound A-4, 2-[5-chloro-3-(1,2-oxazol-3-yl)-1H-indol-1-yl]acetic acid]", "values": [{"measurement": "Point increase (%)", "setting": "[1]", "result": 12, "unit": "%"}]}
{"smiles": "O=C(O)Cn1cc(-c2ccon2)c2cc(Br)ccc21", "note": "[Compound A-12, 2-[5-bromo-3-(1,2-oxazol-3-yl)-1H-indol-1-yl]acetic acid]", "values": [{"measurement": "Point increase (%)", "setting": "[1]", "result": 13, "unit": "%"}]}
{"smiles": "O=C(O)[C@@H]1CCCN1c1ccc(Br)cc1F", "note": "[Compound A-14, (2S)-1-(4-bromo-2-fluorophenyl)pyrrolidine-2-carboxylic acid]", "values": [{"measurement": "Point increase (%)", "setting": "[1]", "result": 26, "unit": "%"}, {"measurement": "ΔV1/2 (mV)", "setting": "[2]", "result": 8.4, "unit": "mV"}]}
{"smiles": "O=C(O)C1CCc2cc(Br)cc(-c3ccon3)c2O1", "note": "(stereo not drawn) [Compound A-15, 6-bromo-8-(1,2-oxazol-3-yl)-3,4-dihydro-2H-1-benzopyran-2-carboxylic acid]", "values": [{"measurement": "average force (AUC) relative to initial force", "setting": "[1]; Figure 1: 50 µM compound added after 90 min incubation in tubocurarine, 3 muscles", "result": "recovered"}]}
{"smiles": "O=C(O)Cn1ccc2cc(Br)ccc21", "note": "[Compound A-24, 2-(5-bromo-1H-indol-1-yl)acetic acid]", "values": [{"measurement": "Point increase (%)", "setting": "[1]", "result": 10, "unit": "%"}, {"measurement": "ΔV1/2 (mV)", "setting": "[2]", "result": 27.9, "unit": "mV"}]}
{"smiles": "CC(C(=O)O)n1ccc2cc(Br)ccc21", "note": "(stereo not drawn) [Compound A-25, 2-(5-bromo-1H-indol-1-yl)propanoic acid]", "values": [{"measurement": "ΔV1/2 (mV)", "setting": "[2]", "result": 5.5, "unit": "mV"}]}
